In article PMC2843403 (Bioorganic & medicinal chemistry, 2010):

Key:
PKCδ C1B [1] = biological target: T1, PKCδ C1B (Mus musculus, UniProt P28867); assay: Fluorescence quenching binding to PKCδ C1B; details: fit of fluorescence quenching of PKCδ C1B (2 μM), Fig. 3
Target sequence in this assay (P28867 231-280): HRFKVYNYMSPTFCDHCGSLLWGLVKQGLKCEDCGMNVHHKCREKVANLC

Solubility = format: physicochemical
PKCδ C1B [2] = biological target: T1, PKCδ C1B; assay: Emission maximum of ligand in presence of PKCδ C1B; format: binding; details: buffer versus presence of C1B subdomain (590 to 560 nm)
Target sequence in this assay (P28867 231-280 limits assumed): as the sequence (P28867 231-280) above

SMILES | Hill coefficient (PKCδ C1B [1]) | Solubility in water (Solubility) | Blue shift of emission maximum (PKCδ C1B [2])
COc1cc(/C=C/C(=O)CC(=O)/C=C/c2ccc(O)c(OC)c2)ccc1O [Compound 1, Curcumin] | 1.6 | poorly soluble | –
CCCCCCCCCCCCCC(=O)O[C@@H]1[C@@H](C)[C@@]2(O)[C@@H](C=C(CO)C[C@]3(O)C(=O)C(C)=C[C@@H]23)[C@@H]2C(C)(C)[C@]12OC(C)=O [TPA, 12-O-tetradecanoylphorbol-13-acetate, reference compound] | 1.8 | – | –
CCCCCCCCCCCCCCCCOc1ccc(/C=C/C(O)=C/C(=O)/C=C/c2ccc(O)c(OC)c2)cc1OC [Compound 4, (1E, 4Z, 6E)-7-(4-(hexadecyloxy)-3-methoxyphenyl)-5-hydroxy-1-(4-hydroxy-3-methoxyphenyl)hepta-1,4,6-trien-3-one] | 2 | – | 30 nm
